# Experiments:
# Assay in all cases: Broth microdilution MIC in CAMHB
# Assay type in all cases: cell-based
# [1] = system: K. pneumoniae UMM producing SHV-5 and KPC-2; settings: Klebsiella pneumoniae, read-out: Minimum Inhibitory Concentration, K. pneumoniae UMM
# Summary of the method: (§1)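 Standard CLSI-style microdilution in cation-adjusted Mueller Hinton broth, 2-fold dilution series, incubated 16-20 h at 37° C; endpoint was visual absence of growth.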
# [2] = system: P. aeruginosa (ΔmexAB-oprM); settings: Pseudomonas aeruginosa, read-out: Minimum Inhibitory Concentration, P. aeruginosa ΔmexAB-OprM
# Summary of the method: as §1
# E. coli ATCC 25922 = settings: Escherichia coli, ATCC25922; E. coli ATCC 25922; MHB; read-out: Minimum Inhibitory Concentration, E. coli 25922
# Summary of the method: as §1
# P. aeruginosa ATCC 27853 = settings: Pseudomonas aeruginosa, ATCC27853; MHB; read-out: Minimum Inhibitory Concentration, P. aeruginosa ATCC 27853
# Summary of the method: as §1
# P. aeruginosa ATCC 35151 = settings: Pseudomonas aeruginosa, ATCC35151; MHB; hyper-permeable strain; read-out: Minimum Inhibitory Concentration, P. aeruginosa ATCC 35151
# Summary of the method: as §1
# [3] = system: K. pneumoniae SI-117 producing VIM-1; settings: Klebsiella pneumoniae, read-out: Minimum Inhibitory Concentration, K. pneumoniae SI-117
# Summary of the method: as §1
# A. baumannii ATCC 19606 = settings: Acinetobacter baumannii, ATCC19606; MHB; read-out: Minimum Inhibitory Concentration, A. baumannii ATCC 19606
# Summary of the method: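 MIC, read by eye, is the lowest compound concentration giving no bacterial growth after 16-20 h at 37° C. Test compounds are serially diluted 2-fold in CAMHB and seeded with 2-8×10^5 CFU/mL of bacteria taken from a 3-5 h shaking culture, following CLSI methods.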
# E. coli AG100 = settings: Escherichia coli; E. coli AG100 (wild-type parent); MHB; read-out: Minimum Inhibitory Concentration, E. coli AG100
# Summary of the method: as §1
# E. coli AG100A = settings: Escherichia coli, read-out: Minimum Inhibitory Concentration, E. coli AG100A
# Summary of the method: as §1
# E. coli 901C = settings: Escherichia coli; E. coli 901C (hyper-permeable); MHB; read-out: Minimum Inhibitory Concentration, E. coli 901C
# Summary of the method: as §1
# E. coli D22 = settings: Escherichia coli; E. coli D22 (hyper-permeable); MHB; read-out: Minimum Inhibitory Concentration, E. coli D22
# Summary of the method: as §1
# [4] = system: K. pneumoniae 848844 producing SHV-11 and KPC-2; settings: Klebsiella pneumoniae, read-out: Minimum Inhibitory Concentration, K. pneumoniae 848844
# Summary of the method: as §1
SMILES,MIC [1] [µg/mL],MIC [2] [µg/mL],MIC (E. coli ATCC 25922) [µg/mL],MIC (P. aeruginosa ATCC 27853) [µg/mL],MIC (P. aeruginosa ATCC 35151) [µg/mL],MIC [3] [µg/mL],MIC (A. baumannii ATCC 19606) [µg/mL],MIC (E. coli AG100) [µg/mL],MIC (E. coli AG100A) [µg/mL],MIC (E. coli 901C) [µg/mL],MIC (E. coli D22) [µg/mL],MIC [4] [µg/mL]
"CCN1CCN(C(=O)NC(C(=O)N[C@H]2Cc3cccc(C(=O)O)c3OB2O)c2cc(C#N)c(OC)cc2F)C(=O)C1=O (stereo partly drawn) [Example 192, (3R)-3-(2-(5-cyano-2-fluoro-4-methoxyphenyl)-2-(4-ethyl-2,3-dioxopiperazine-1-carboxamido)acetamido)-2-hydroxy-3,4-dihydro-2H-benzo[e][1,2]oxaborinine-8-carboxylic acid]",> 128,32 to 64,> 128,> 128,2 to 4,> 128,> 128,> 128,32 to 64,2 to 4,32 to 64,> 128
"O=C(O)c1cccc2c1OB(O)[C@@H](NC(=O)C(NC(=O)N1CCN(CC3CNC3)C(=O)C1=O)c1c(F)cc(O)cc1F)C2 (stereo partly drawn) [Example 193, (3R)-3-(2-(4-(azetidin-3-ylmethyl)-2,3-dioxopiperazine-1-carboxamido)-2-(2,6-difluoro-4-hydroxyphenyl)acetamido)-2-hydroxy-3,4-dihydro-2H-benzo[e][1,2]oxaborinine-8-carboxylic acid]",8 to 16,8 to 16,8 to 16,> 128,0.5 to 1,32 to 64,> 128,8 to 16,0.5 to 1,0.5 to 1,2 to 4,32 to 64
"CCN1CCN(C(=O)NC(C(=O)N[C@H]2Cc3cccc(C(=O)O)c3OB2O)c2ccc(C(=O)O)c(O)c2)C(=O)C1=O (stereo partly drawn) [Example 196, (3R)-3-(2-(4-carboxy-3-hydroxyphenyl)-2-(4-ethyl-2,3-dioxopiperazine-1-carboxamido)acetamido)-2-hydroxy-3,4-dihydro-2H-benzo[e][1,2]oxaborinine-8-carboxylic acid]",8 to 16,2 to 4,32 to 64,32 to 64,< 0.25,32 to 64,> 128,32 to 64,2 to 4,< 0.25,0.5 to 1,32 to 64
"CCN1CCN(C(=O)NC(C(=O)N[C@H]2Cc3cccc(C(=O)O)c3OB2O)c2cc(NS(N)(=O)=O)ccc2F)C(=O)C1=O (stereo partly drawn) [Example 197, (3R)-3-(2-(4-ethyl-2,3-dioxopiperazine-1-carboxamido)-2-(2-fluoro-5-(sulfamoylamino)phenyl)acetamido)-2-hydroxy-3,4-dihydro-2H-benzo[e][1,2]oxaborinine-8-carboxylic acid]",8 to 16,2 to 4,8 to 16,> 128,< 0.25,32 to 64,32 to 64,8 to 16,0.5 to 1,< 0.25,0.5 to 1,> 128
"NS(=O)(=O)Nc1ccc(F)c(C(NC(=O)N2CCN(CCF)C(=O)C2=O)C(=O)N[C@H]2Cc3cccc(C(=O)O)c3OB2O)c1 (stereo partly drawn) [Example 198, (3R)-3-(2-(2-fluoro-5-(sulfamoylamino)phenyl)-2-(4-(2-fluoroethyl)-2,3-dioxopiperazine-1-carboxamido)acetamido)-2-hydroxy-3,4-dihydro-2H-benzo[e][1,2]oxaborinine-8-carboxylic acid]",32 to 64,2 to 4,8 to 16,> 128,0.5 to 1,32 to 64,> 128,8 to 16,0.5 to 1,< 0.25,0.5 to 1,> 128
"CCN1CCN(C(=O)NC(C(=O)N[C@H]2Cc3cccc(C(=O)O)c3OB2O)c2ccc(C(=O)O)c(Cl)c2Cl)C(=O)C1=O (stereo partly drawn) [Example 201, (3R)-3-(2-(4-carboxy-2,3-dichlorophenyl)-2-(4-ethyl-2,3-dioxopiperazine-1-carboxamido)acetamido)-2-hydroxy-3,4-dihydro-2H-benzo[e][1,2]oxaborinine-8-carboxylic acid]",> 128,8 to 16,> 128,> 128,0.5 to 1,> 128,> 128,> 128,32 to 64,0.5 to 1,2 to 4,> 128
"CCN1CCN(C(=O)NC(C(=O)N[C@H]2Cc3cccc(C(=O)O)c3OB2O)c2cc(C#N)c(O)cc2F)C(=O)C1=O (stereo partly drawn) [Example 209, (3R)-3-(2-(5-cyano-2-fluoro-4-hydroxyphenyl)-2-(4-ethyl-2,3-dioxopiperazine-1-carboxamido)acetamido)-2-hydroxy-3,4-dihydro-2H-benzo[e][1,2]oxaborinine-8-carboxylic acid]",32 to 64,8 to 16,32 to 64,> 128,< 0.25,> 128,> 128,32 to 64,2 to 4,< 0.25,2 to 4,> 128
"O=C(O)c1cccc2c1OB(O)[C@@H](NC(=O)C(NC(=O)N1CCN(C3CNC3)C(=O)C1=O)c1c(F)cc(O)cc1F)C2 (stereo partly drawn) [Example 212, (3R)-3-(2-(4-(azetidin-3-yl)-2,3-dioxopiperazine-1-carboxamido)-2-(2,6-difluoro-4-hydroxyphenyl)acetamido)-2-hydroxy-3,4-dihydro-2H-benzo[e][1,2]oxaborinine-8-carboxylic acid]",8 to 16,8 to 16,8 to 16,> 128,0.5 to 1,32 to 64,> 128,8 to 16,2 to 4,0.5 to 1,2 to 4,32 to 64
"CCN1CCN(C(=O)NC(C(=O)N[C@H]2Cc3cccc(C(=O)O)c3OB2O)c2c(F)cc(NC(=O)NC)cc2F)C(=O)C1=O (stereo partly drawn) [Example 213, (3R)-3-(2-(2,6-difluoro-4-(3-methylureido)phenyl)-2-(4-ethyl-2,3-dioxopiperazine-1-carboxamido)acetamido)-2-hydroxy-3,4-dihydro-2H-benzo[e][1,2]oxaborinine-8-carboxylic acid]",32 to 64,2 to 4,32 to 64,> 128,0.5 to 1,> 128,> 128,32 to 64,2 to 4,< 0.25,2 to 4,> 128
